These results are taken from PMC10492809, “A Bischler-Napieralski and homo-Mannich sequence enables diversified syntheses of sarpagine alkaloids and analogues” (Nature Communications, 2023).

“And” between values parts separate entries of the source, which are not always exact repeats. Equal entries are not always repeated. Where two headings read alike, the source gives them in different places. Bounds are passed on as bounds.

Holding throughout (assay type): cell-based
For one series, the system named is MDA-MB-231 cells. Put plainly: Cell death manner assay (MTT, co-incubation with cell death inhibitors). Conditions: Fer-1 / NAC experiment; 15ai 10 μM, Fer-1 10 μM, NAC 5 mM, 72 h; single replicates. On the procedure: [The source words this procedure for another cell line and reports this cell line under the same test.] To investigate the mechanism of 15ai in cancer cell proliferation inhibition, the manners of cell death were analyzed. The cell apoptosis inhibitor Z-VAD-FMK (Z-VAD), cell necrosis inhibitor Necrostatin-1 (Necro-1), ferroptosis inhibitor Ferrostatin-1 (Fer-1), and ROS inhibitor N-acetylcysteine (NAC) were purchased and stored at −20 °C. A375 cells were seeded with a density of 5000 cells/100 µL/well into 96 well plates. After 12 h, 15ai was added at different concentrations. Following that 10 µM Z-VAD, 10 µM Nerco-1, 10 µM Fer-1, and 5 mM NAC were added and co-incubated with 15ai, respectively, for 72 h. Then, 20 µL MTT solution (5 mg/mL) was added and incubated at 37 °C for an additional 4 h. Then, the supernatant was discarded, and 200 μL DMSO was added to dissolve the precipitate. After 15 min, the absorbance (OD490) was read on a microplate reader (SpectraMax i3x, Austria). In all experiments, three replicate wells were used for each drug concentration. Each assay was performed at least three times.

The next series has as its system MIA PaCa-2. Put plainly: MTT cell viability assay, MIA PaCa-2. On the procedure: (§1) All cell lines were cultured at 37 °C with 5% CO2 in a humidified incubator. HeLa cells were grown in MEM (Gibco) supplemented with 10% fetal bovine serum (FBS, Hyclone) and 1% penicillin/streptomycin (Gibco). MIA PaCa-2, MDA-MB-231, A549, MCF-7, A375 and BEAS-2B cells were grown in DMEM (Gibco) supplemented with 10% FBS and 1% penicillin/streptomycin. CT26, and HCT116 cells were grown in RPMI-1640 supplemented with 10% FBS and 1% penicillin/streptomycin. All cell lines were purchased from the National Collection of Authenticated Cell Cultures (China).
(§2) The antiproliferative activities of the prepared compounds against tested cell lines were evaluated using a standard (MTT)-based colorimetric assay. Cells were plated at a density of 3000 cells/well in 96-well plates and allowed to adhere overnight. Then cells were treated with varying concentrations of synthesized compounds for 72 h. At the end of treatment, 20 μL of thiazolyl blue tetrazolium bromide (MTT) solution (5 mg/mL) was added to each well. Cells were incubated for an additional 4 h at 37 °C and then the medium was removed and replaced with 200 μL of DMSO. The absorbance (OD490) was read on a microplate reader (SpectraMax i3x, Molecular Devices, US). In all experiments, three replicate wells were used for each drug concentration. Each assay was performed at least three times. The IC50 values were calculated by GraphPad Prism 9, which were the mean values derived from three independent experiments.
On the technique in general: Tetrazolium dyes change colour on reduction, which living cells bring about.

Another series relates to A549. Put plainly: MTT cell viability assay, A549. How it is done: as §1, §2
In another series the test system is A375. As to the kind of experiment: MTT cell viability assay, A375. On the procedure: as §1, §2
For another series, the system named is MCF-7. As to the kind of experiment: MTT cell viability assay, MCF-7. How it is done:
as §1, §2

The test system of another series is MDA-MB-231. Put plainly: MTT cell viability assay, MDA-MB-231. On the procedure: as §1, §2
Another series deals with Hela. Put plainly: MTT cell viability assay, Hela. How it is done:
as §1, §2

Another series relates to HCT 116. As to the kind of experiment: MTT cell viability assay, HCT 116. How it is done: as §1, §2
Series [1] can be described thus: MTT cytotoxicity towards normal cells, BEAS-2B. Conditions: human. On the procedure: as §1, §2
The subject of the next series is CT26. As to the kind of experiment: MTT cell viability assay, CT26. How it is done: as §1, §2
In another series the test system is cancer cell lines. As to the kind of experiment: In vitro cancer cell assays (antiproliferation, cell line not given). Conditions: result in words. How it is done: as §1, §2

For `CC(=O)N[C@@H](CS)C(=O)O` [NAC, N-acetylcysteine, reference compound], in the series on MDA-MB-231 cells, the Percentage of viability is 108.212% and 96.8182% and 102.046%.

As for `CC=C1CN2C3CC1C(C=O)C2Cc1c3[nH]c2ccccc12` (stereo not shown) [vellosimine (4), vellosimine], the IC50 is 32.6 µM in the series with MIA PaCa-2 (Homo sapiens, MIA PaCa-2, 72 h, MTT, 72 h, mean of at least three independent experiments, read-out: IC50 MIA PaCa-2); 35.9 µM in the series with MIA PaCa-2 (Homo sapiens, MIA PaCa-2, source data sheet, single values of three experiments, read-out: MTT IC50 MIA PaCa-2); 29.6 µM and 32.2 µM in the series with MIA PaCa-2 (source data sheet, single values of three experiments, read-out: MTT IC50 MIA PaCa-2); 23.2 µM in the series with A549 (Homo sapiens, A549, 72 h, MTT, 72 h, mean of at least three independent experiments, read-out: IC50 A549); 22.2 µM in the series with A549 (Homo sapiens, A549, source data sheet, single values of three experiments, read-out: MTT IC50 A549); 26.1 µM and 21.4 µM with A549 (source data sheet, single values of three experiments, read-out: MTT IC50 A549). Besides, the IC50 is 28.6 µM with A375 (Homo sapiens, A-375, 72 h, MTT, 72 h, mean of at least three independent experiments, read-out: IC50 A375); 32.1 µM in the series on A375 (Homo sapiens, A-375, source data sheet, single values of three experiments, read-out: MTT IC50 A375); 26.2 µM and 27.5 µM in the series on A375 (source data sheet, single values of three experiments, read-out: MTT IC50 A375); 39.2 µM with MCF-7 (Homo sapiens, MCF7, 72 h, MTT, 72 h, mean of at least three independent experiments, read-out: IC50 MCF-7); 38.9 µM in the series with MCF-7 (Homo sapiens, MCF7, source data sheet, single values of three experiments, read-out: MTT IC50 MCF-7); 42.7 µM and 36 µM with MCF-7 (source data sheet, single values of three experiments, read-out: MTT IC50 MCF-7). Also, the IC50 is 21.2 µM in the series on MDA-MB-231 (Homo sapiens, MDA-MB-231, 72 h, MTT, 72 h, mean of at least three independent experiments, read-out: IC50 MDA-MB-231); 23 µM in the series with MDA-MB-231 (Homo sapiens, MDA-MB-231, source data sheet, single values of three experiments, read-out: MTT IC50 MDA-MB-231); 18.2 µM and 22.2 µM in the series with MDA-MB-231 (source data sheet, single values of three experiments, read-out: MTT IC50 MDA-MB-231); 24.1 µM in the series with Hela (Homo sapiens, HeLa, 72 h, MTT, 72 h, mean of at least three independent experiments, read-out: IC50 Hela); 27.5 µM in the series with Hela (Homo sapiens, HeLa, source data sheet, single values of three experiments, read-out: MTT IC50 Hela); 22.6 µM and 22.2 µM in the series on Hela (source data sheet, single values of three experiments, read-out: MTT IC50 Hela). The IC50 in the series on HCT 116 (Homo sapiens, HCT-116, 72 h, MTT, 72 h, mean of at least three independent experiments, read-out: IC50 HCT 116) was 27.5 µM; in the series on HCT 116 (Homo sapiens, HCT-116, source data sheet, single values of three experiments, read-out: MTT IC50 HCT-116), 29.6 µM; with HCT 116 (source data sheet, single values of three experiments, read-out: MTT IC50 HCT-116), 25.2 µM and 27.8 µM; in the series on CT26 (Mus musculus, CT26, 72 h, MTT, 72 h, mean of at least three independent experiments, read-out: IC50 CT26), 20.2 µM; in the series with CT26 (Mus musculus, CT26, source data sheet, single values of three experiments, read-out: MTT IC50 CT-26), 18.9 µM; with CT26 (source data sheet, single values of three experiments, read-out: MTT IC50 CT-26), 23.2 µM and 18.5 µM. The IC50 at 72 h in series [1] (BEAS-2B lung epithelial cells (normal cells), source data sheet, single values of three experiments) is above 100 µM. The CC50 at 72 h in [1] (BEAS-2B lung epithelial cells, MTT, 72 h, cytotoxicity towards normal cells, mean of at least three independent experiments) was above 100 µM. The “antiproliferation activity in the in vitro cancer cell assays” value in the series with cancer cell lines is “moderate antiproliferation activity”.

The IC50 is the point on the concentration scale where inhibition reaches its midpoint. The CC50 is the concentration that lowers cell viability or growth by half. A low value points to harm at low concentration.
